This passage reports melting point, IC50 and viability results from publication PMC9181938, “Fluorinated Analogues of Lepidilines A and C: Synthesis and Screening of Their Anticancer and Antiviral Activity” (Molecules, 2022).

Structures can show the parent of a compound that is named as a salt. Where two headings read alike, the source gives them in different places. Some results are limits rather than exact numbers.

The term melting point denotes the temperature, or range, at which the solid turns liquid. The IC50 is the concentration needed to halve the response being measured. The term viability denotes a read-out of living cells in per cent, often relative to untreated cells.

Series [1] deals with Human herpesvirus 5 (HCMV). The series can be described thus: Antiviral activity assay (0.1–1000 µM), IC50, plaque reduction. The series is classed as cell-based. The settings on record: Human betaherpesvirus 5, 20 PFU/well. On the procedure:
(§1) Antiviral properties of compounds 1e–1g, 1e[PF6], 8a–8d, and 9a were assessed against five viruses: Human herpesvirus 1 (HSV-1, VR-539), Human parainfluenza virus type 3 (HPIV-3, VR-93), Human adenovirus 5 (AdV5, VR-5), Human herpesvirus 5 (HCMV, VR-977), and Encephalomyocarditis virus (EMCV, VR-1479). Viruses were purchased from the American Type Culture Collection (ATCC, Manassas, VA, USA).
(§2) All tested compounds were dissolved in DMSO (dimethyl sulfoxide, Sigma-Aldrich, Darmstadt, Germany) and then suspended in Minimum Essential Medium (MEM; Sigma-Aldrich, Darmstadt, Germany) supplemented with 2% heat-inactivated fetal bovine serum (FBS; Sigma-Aldrich, Darmstadt, Germany), 2 mM L-glutamine (Sigma-Aldrich, Darmstadt, Germany), and 100 units/mL penicillin G with […] streptomycin (Sigma-Aldrich, Darmstadt, Germany).
(§3) Investigated cells were propagated in Minimum Essential Medium (MEM; Sigma-Aldrich, Darmstadt, Germany) supplemented with 10% heat-inactivated fetal bovine serum (FBS; Sigma-Aldrich, Darmstadt, Germany) and 100 units/mL penicillin G with […] streptomycin (Sigma-Aldrich, Darmstadt, Germany). After reaching 80–90% confluency, cells were harvested with trypsin (Life Technologies, Warsaw, Poland) and seeded into 96-well microplates at 2 × 10^5 cells/mL after overnight incubation of cells at 37 °C in a humidified atmosphere containing 5% CO2.
(§4) The culture medium was removed from confluent cells grown in 96-well microplates, and the cells were inoculated with virus solutions in MEM supplemented with 2% FBS and antibiotics (HSV-1 MOI 0.005, 1000 virions/mL; HPIV-3 MOI 0.01, 2000 virions/mL; AdV5 MOI 0.005, 1000 virions/mL; EMCV 0.005, 1000 virions/mL; HCMV 20 PFU/well (plaque-forming units per well). After a 1-h (HSV-1, HPIV-3, AdV5, and EMCV) or 2-h adsorption period (HCMV), residual viral particles were removed, and infected cells were further incubated with MEM supplemented with 2% FBS containing compound concentrations in the range from 0.1 to 1000 µM [38]. All experiments were carried out in triplicate. The cell monolayers were incubated with the investigated compounds at 37 °C in a humidified atmosphere containing 5% CO2 until a cytopathic effect (CPE) was visible. Viral infection was evaluated by the MTT assay (as described previously) or plaque reduction assay. HCMV plaques were counted under an inverted microscope, Olympus IX73 (Olympus, Tokyo, Japan). Antiviral activity was expressed as the concentration required to reduce the number of viral plaques to 50% of the control (virus-infected but untreated).

Series [2] deals with Human adenovirus 5 (AdV5). The series can be described thus: Antiviral activity assay (0.1–1000 µM), IC50. The series is classed as cell-based. The settings on record: Human mastadenovirus C; AdV5, MOI 0.005; read-out: IC50 AdV5. On the procedure:
as §1, §2, §3, §4

Series [3] concerns Human parainfluenza virus type 3 (HPIV-3). As to the kind of experiment: Antiviral activity assay (0.1–1000 µM), IC50. The class given is cell-based. The conditions noted are these: Human respirovirus 3, HPIV-3, MOI 0.01; read-out: IC50 HPIV-3. As for the experimental part:
as §1, §2, §3, §4

Series [4] concerns Encephalomyocarditis virus (EMCV). As to the kind of experiment: Antiviral activity assay (0.1–1000 µM), IC50. The series is classed as cell-based. The settings on record: Cardiovirus A, MOI 0.005, read-out: IC50 EMCV. On the procedure: as §1, §2, §3, §4
Series [5] relates to Human herpesvirus 1 (HSV-1). The series can be described thus: Antiviral activity assay (0.1–1000 µM), IC50. The class given is cell-based. The conditions noted are these: Human alphaherpesvirus 1; HSV-1, MOI 0.005. On the procedure:
as §1, §2, §3, §4

Series [6] is described as follows: Cytotoxicity screening at 10 µM (MTT). The series is classed as cell-based, Mus musculus. The settings on record: Mus musculus, NCTC clone 929 cells, read-out: Cell line (viability %) NCTC clone 929.
Series [7] concerns Human herpesvirus 5 (HCMV). The series can be described thus: Antiviral screening at 10 µM, plaque reduction. The class given is cell-based. The settings on record: Human betaherpesvirus 5, antiviral screening, HCMV-infected cells, read-out: Cell line (viability %) HCMV. As for the experimental part:
(§5) Antiviral properties of compounds 1a, 1c, 1a[PF6], 1c[PF6], 9b[PF6], 9c[PF6], 10a–10d, 2a, and 2b were assessed against five viruses: Human herpesvirus 1 (HSV-1, VR-539), Human parainfluenza virus type 3 (HPIV-3, VR-93), Human adenovirus 5 (AdV5, VR-5), Human herpesvirus 5 (HCMV, VR-977), and Encephalomyocarditis virus (EMCV, VR-1479). Viruses were purchased from the American Type Culture Collection (ATCC, Manassas, VA, USA).
as §2
(§6) Vero, LLC-MK2, NCTC clone 929, MRC-5, and HeLa cells were propagated in Minimum Essential Medium (MEM; Sigma-Aldrich, Darmstadt, Germany) supplemented with 10% heat-inactivated fetal bovine serum (FBS; Sigma-Aldrich, Darmstadt, Germany) and 100 units/mL penicillin G with […] streptomycin (Sigma-Aldrich, Darmstadt, Germany). Upon reaching 80–90% confluency, cells were harvested with 0.25% trypsin in 1 mM EDTA (Life Technologies, Warsaw, Poland) and seeded onto 96-well microplates at 2 × 10^5 cells/mL. After overnight incubation of cells at 37 °C in a humidified atmosphere containing 5% CO2, the culture medium was removed, and cells were inoculated with the respective virus solution in MEM supplemented with 2% FBS and antibiotics (HSV-1 MOI 0.005, 1000 virions/mL; HPIV-3 MOI 0.01, 2000 virions/mL; AdV5 MOI 0.005, 1000 virions/mL, EMCV MOI 0.005, 1000 virions/mL, HCMV 20 PFU (plaque forming units) per well). After a 1-h (HSV-1, HPIV-3, AdV5, and EMCV) or 2-h adsorption period (HCMV), the residual virus was removed, and the infected cells were further incubated with a 100 μL freshly prepared solution of tested compounds diluted with a maintenance medium supplemented with 2% FBS to obtain compound concentrations of 10 µM. The final concentration of DMSO in the medium was 0.1%. All experiments were carried out in triplicate. The cells monolayers were incubated with the compounds at 37 °C in a humidified atmosphere containing 5% CO2 until the typical cytopathic effect (CPE) was visible. Viral infection was evaluated by the MTT assay or plaque reduction assay (HCMV). After incubation with drugs, the cells were treated with 3-(4,5-dimethylthiazol-2-yl)-2,5-diphenyltetrazolium bromide dye solution (MTT, Sigma-Aldrich, Darmstadt, Germany) (25 μL, 5 mg/mL) for 2 h and lysed with solvent solution (100 μL) containing: DMF (Sigma-Aldrich, Darmstadt, Germany) (45 mL), SDS (Sigma-Aldrich, Darmstadt, Germany) (13.5 g), and distilled water (55 mL). After overnight incubation at 37 °C, the optical density at 550 nm and a reference wavelength of 670 nm were measured on a microplate spectrophotometer, Varioskan Lux (Thermo Fisher Scientific, Waltham, MA, USA). The number of HCMV plaques was counted under an inverted microscope Olympus IX73 (Olympus, Tokyo, Japan).

A short description of series [8]: Cytotoxicity screening at 10 µM (MTT). The settings on record: Macaca mulatta, LLC-MK2 cells, read-out: Cell line (viability %) LLC-MK2. The class given is cell-based, Macaca mulatta.
Series [9] is described as follows: Cytotoxicity screening at 10 µM (MTT). The series is classed as cell-based, Human. The conditions noted are these: human, HeLa cells, read-out: Cell line (viability %) HeLa.
Series [10] concerns Human adenovirus 5 (AdV5). The series can be described thus: Antiviral screening at 10 µM. The series is classed as cell-based. The settings on record: Human mastadenovirus C, AdV5-infected cells, read-out: Cell line (viability %) AdV5. As for the experimental part: as §5, §2, §6
Series [11] has as its system Human parainfluenza virus type 3 (HPIV-3). As to the kind of experiment: Antiviral screening at 10 µM. The class given is cell-based. The conditions noted are these: Human respirovirus 3, antiviral screening, HPIV-3-infected cells, read-out: Cell line (viability %) HPIV-3. On the procedure:
as §5, §2, §6

The subject of series [12] is Encephalomyocarditis virus (EMCV). The series can be described thus: Antiviral screening at 10 µM. The series is classed as cell-based. The conditions noted are these: Cardiovirus A, EMCV-infected cells, read-out: Cell line (viability %) EMCV. As for the experimental part:
as §5, §2, §6

Series [13] concerns Human herpesvirus 1 (HSV-1). As to the kind of experiment: Antiviral screening at 10 µM. The class given is cell-based. The conditions noted are these: Human alphaherpesvirus 1, antiviral screening, HSV-1-infected cells, read-out: Cell line (viability %) HSV-1. On the procedure: as §5, §2, §6
Series [14] is described as follows: Cytotoxicity screening at 10 µM (MTT). The class given is cell-based, Human. The conditions noted are these: human, MRC-5 cells, read-out: Cell line (viability %) MRC-5.
Series [15] is described as follows: Cytotoxicity screening at 10 µM (MTT). The series is classed as cell-based, Cercopithecus aethiops. The settings on record: Cercopithecus aethiops, Vero cells, read-out: Cell line (viability %) Vero.

As to `FC(F)(F)c1cccc(Cn2c[n+](OCc3ccccc3)c(-c3ccccc3)c2-c2ccccc2)c1.[Br-]`, the melting point lay in the range of 107 to 110 °C.

Molecule `COc1cccc(CO[n+]2cn(Cc3cccc(C(F)(F)F)c3)c(-c3ccccc3)c2-c2ccccc2)c1.[Br-]` displayed a melting point of 132 to 134 °C.

`Cc1cc(C)cc(CO[n+]2cn(Cc3cccc(C(F)(F)F)c3)c(-c3ccccc3)c2-c2ccccc2)c1.[Br-]` returned a melting point of 156 to 158 °C.

Molecule `Cc1c(C)[n+](Cc2ccccc2)cn1Cc1cccc(F)c1` (as salt: phosphate) [1e[PF6]] [1-Benzyl-3-(3-fluorobenzyl)-4,5-dimethylimidazolium hexafluorophosphate] gave a melting point of 110 to 112 °C.

As to `Cc1c(C)[n+](Cc2ccccc2)cn1Cc1cccc(F)c1` [1e[PF6], 1-Benzyl-3-(3-fluorobenzyl)-4,5-dimethylimidazolium hexafluorophosphate], the IC50 in series [1] is above 150 µM; in series [2], above 0.08 µM; in [3], above 150 µM; in series [4], above 148 µM; in series [5], above 56.3 µM.

As for `c1ccc(Cn2c[n+](Cc3ccccc3)c(-c3ccccc3)c2-c2ccccc2)cc1` [9b[PF6]], the viability at 48 h, 10 µM in [6] was 4.1%; in series [8] it was 8%; in series [9], 6.8%; in series [14], 12.8%; in [15], 6.7%. Also, the viability at 10 µM in series [7] came out at 6.3%; in series [10], 13.9%; in series [11] it was 12%; in series [12], 9.3%; in [13], 11.7%.

As to `COc1cccc(Cn2c[n+](Cc3ccccc3)c(-c3ccccc3)c2-c2ccccc2)c1` [9c[PF6]], the viability at 48 h, 10 µM in [6] was 6.5%; in series [8], 7.6%; in series [9] it was 7.1%; in [14], 12.6%; in [15], 6.6%. Moreover, the viability at 10 µM in series [7] turned out to be 1.9%; in series [10], 14.4%; in [11], 12.8%; in series [12], 9.4%; in series [13] it was 13.3%.

Turning to `c1c[n+](C23CC4CC(CC(C4)C2)C3)cn1C12CC3CC(CC(C3)C1)C2` [Compound 2a, 1,3-diadamantyl imidazolium bromide, reference compound], the viability at 48 h, 10 µM in [6] stood at 8.9%; in series [8], 7.8%; in series [9], 23%; in series [14], 73.7%; in series [15] it was 7.9%. Also, the viability at 10 µM in [7] was 9.7%; in [10], 50.2%; in series [11], 8.3%; in series [12] it was 7.1%; in series [13], 13.9%.

For the molecule `c1c[n+](OC23CC4CC(CC(C4)C2)C3)cn1OC12CC3CC(CC(C3)C1)C2` [Compound 2b], the viability at 48 h, 10 µM in series [6] worked out at 6.6%; in [8] it was 7.8%; in [9], 7.5%; in series [14], 12.7%; in [15], 15.2%. The viability at 10 µM in series [7] was found to be 2.8%; in series [10] it was 17.1%; in series [11], 8.7%; in [12], 9.6%; in [13], 14.1%.

`COc1cccc(Cn2c(C)c(C)n(Cc3ccccc3)c2=S)c1` [Compound 10b]: the viability at 48 h, 10 µM in series [6] is 59%; in [8] it was 9.1%; in series [9], 13.3%; in series [14], 100%; in series [15], 29.1%. Further, the viability at 10 µM turned out to be 1.9% in [7]; 39.5% in [10]; 7.9% in series [11]; 8.1% in [12]; 16.5% in series [13].

With `S=c1n(Cc2ccccc2)c(-c2ccccc2)c(-c2ccccc2)n1Cc1ccccc1` [Compound 10c], the viability at 48 h, 10 µM is 35.5% in [6]; 15.8% in series [8]; 7.8% in [9]; 73.8% in series [14]; 11.4% in [15]. Also, the viability at 10 µM in series [7] was 7.1%; in series [10], 16%; in [11] it was 10.9%; in series [12], 8.5%; in series [13] it was 14.7%.
